Reference: US12064468B2, “Compositions and methods relating to a C-terminal peptide of troponin i with activity as a myofilament CA2+ desensitizer” (Wayne State University, priority 2019, dated 2024)
Ends that are not written are not given here.

Assays:
[1] = biological target: T1, bovine cardiac α-tropomyosin (Bos taurus, UniProt Q5KR49); assay: Competitive ELISA: peptide versus intact bovine cardiac TnI for tropomyosin binding; conditions: serial dilutions of peptide in solution
T1 construct: Purified bovine cardiac α-tropomyosin was coated on 96-well plate; from tissue; host or cells: bovine cardiac muscle (inferred from 'purified bovine cardiac')
Description: Competitive tropomyosin binding experiments were performed using a derivative protocol of the microtiter plate ELISA as described in B. J. Biesiadecki et al., Journal of Biomedicine and Biotechnology, (2011) 1-8. Purified bovine cardiac α-tropomyosin was coated on 96-well plate at 5 μg/mL in Buffer A at 4° C. overnight. Washed and blocked as above, bovine cardiac TnI was added, at a predetermined concentration that produces sub-maximal binding for the immobilized tropomyo sin, to serial dilutions of HcTnI-C27 or HcTnI-C27-H peptides for incubation at room temperature for 2 hours. The competition between the cardiac TnI C-terminal peptides and intact cardiac TnI for tropomyosin binding was measured via mAb 4H6 that recognizes an epitope in intact TnI but not in the C-terminal end peptide, see S. Akhter et al., FEBS Open Bio 5 (2015) 64-75, and HRP-anti-mouse IgG secondary antibody using standard ELISA procedure as described above.

mAb TnI-1 [2] = assay: Competitive ELISA: peptide versus immobilized bovine cardiac TnI for mAb TnI-1; type: binding, mouse; conditions: physiologic solution
Description: To compare the folding and conformation of chemically synthesized HcTnI-C27 and HcTnI-C27-H peptides with that of the biologically synthesized counterparts, competitive ELISA affinity titrations against mAb TnI-1 were performed. 96-well microtiter plates were coated with purified bovine cardiac TnI in Buffer A and incubated at 4° C. overnight. Monoclonal antibody (mAb) TnI-1 was added, at a predetermined concentration that produces sub-maximal binding for the immobilized bovine cardiac TnI, to serial dilutions of biologically or chemically synthesized HcTnI-C27 and HcTnI-C27-H peptides. The effects of the peptides on competing with intact cardiac TnI for mAb TnI-1 were measured via HRP-anti-mouse IgG secondary antibody using standard ELISA procedure as described above.

mAb TnI-1 [3] = assay: Western blot with mAb TnI-1 (epitope in the C-terminal end of TnI); type: binding, mouse; conditions: after denaturing SDS-PAGE and blotting
Description: SDS-PAGE was performed to monitor the expression and identify the C27 peptide in intact TnI and fusion protein constructs. Briefly, 14% Laemmli SDS-PAGE with an acrylamide:bisacrylamide ratio of 29:1 was used to monitor protein expression. Protein samples were prepared by dissolving the proteins in an SDS-PAGE gel sample buffer containing 2% SDS and 3% β-mercaptoethanol. The samples were run on 0.75 mm gels at 20 mA per gel using a Bio-Rad mini-gel system. Resolved gels were stained with Coomassie Blue R-250 and de-stained using 10% acetic acid. The results were documented by imaging using a high resolution scanner.
Tris-Tricine small pore SDS-gels were utilized to […]. Briefly, 15% SDS-PAGE with acrylamide:bisacrylamide ratio of 20:1 was used to monitor the recovery of peptides. Samples were prepared as above. The gel was run using different anode and cathode buffers as described in H. Schagger et al., 166(2) (1987) 368-379; J.-P. Jin, Journal of Biological Chemistry 270(12) (1995) 6908-6916. The running conditions and documentation of results were carried out as above.
The protein bands resolved on SDS-PAGE gels were electrically transferred to nitrocellulose (NC) membranes or polyvinylidene difluoride (PVDF) membranes using a Bio-Rad semidry electrotransfer apparatus at 5 mA per cm^2. The membranes were then blocked with 1% bovine serum albumin (BSA) in Tris-buffered saline (TBS) at room temperature for 30 minutes, and incubated with mAb TnI-1 against an epitope in the C-terminal end of TnI or mAb 3C11 against the Tx3 metal affinity purification tag at 4° C. overnight. The TnI-1 mAb was raised using standard hybridoma technology in which the immunization of mouse used purified intact chicken fast TnI. […] The 3C11 mAb was generated using standard hybridoma technology in which the immunization used a Tx3 metal binding tag fusion protein. […] Washed with 0.05% Triton X-100 and 0.1% SDS in TBS, the membranes were further incubated with alkaline phosphatase-conjugated goat anti-mouse IgG secondary antibody, washed again, and developed in BCIP-NTB substrate solution. The results were documented by imaging using a high resolution scanner.

[4] = tested on: skinned mouse EDL muscle fibers; assay: Force-pCa contractility of skinned mouse EDL muscle fibers; type: biochemical; conditions: 20 μM peptide, sarcomere length 2.7 μm
Text: Extensor digitorum longus (EDL) muscles were obtained from adult C57B/L6 mice immediately after euthanasia to prepare chemically permeabilized muscle preparations as described in J. Ochala et al., The FASEB Journal 25(6) (2011) 1903-1913; and S. M. Roche et al., Journal of Visualized Experiments 100 (2015). Briefly, whole EDL muscles were excised from mice and longitudinally dissected along fibers in a calcium free relaxing buffer. The muscle strips dissected were washed with the relaxing buffer and stored in a 35 mm dish at −20° C. in 50% glycerol relaxing-skinning solution to remove cellular membranes and the endogenous calcium handling system for use in the measurements of calcium sensitivity and force-pCa relationship.
For contractility studies, the storage dish was placed on a thermal-controlled metal stage at 0° C. under a dissection scope. Cryosectioned cardiac muscle strips selected with cardiomyocytes clearly organized along the long axis and EDL muscle fibers were mounted between two aluminum T-clips and transferred to an 8-chamber thermo-controlled stage (802D, Aurora Scientific) on an inverted microscope in relaxation buffer at 6-8° C. Seen through a 20× lens, the muscle preparation was connected to a force transducer (403A, Aurora Scientific) and a length controller (322-C, Aurora Scientific). The buffer was then switched to a skinning solution (relaxation buffer containing 1% Triton X-100) for 20 min to further permeabilize the muscle strips. After a wash with relaxation buffer, the permeabilized muscle strip was placed in pCa 9.0 buffer made by mixing the relaxing buffer (pCa 10.0) with an activation buffer (BES 40 mM, EGTA 10 mM, MgCl2 6.64 mM, ATP 6.23 mM, DTT, 1 mM, CaCl2 10 mM, creatine phosphate 33 mM, creatine kinase 200 U/mL, K-propionate 2.09 mM, pH 7.0, plus protease inhibitor cocktail, pCa 4.0) and the sarcomere length was measured through a digital camera attached to the microscope and adjusted to resting sarcomere length of 2.7 μm for EDL muscle fibers or 2.0 μm and 2.3 μm for cardiac muscle fibers. […]

[5] = tested on: skinned mouse ventricular papillary muscle; assay: Force-pCa contractility of skinned mouse ventricular papillary muscle; type: biochemical; conditions: 20 μM peptide
Description: (§1) Permeabilized rat and mouse left ventricular papillary muscle preparations were prepared using a skinned cryosection method. Papillary muscles were dissected with a portion of ventricular free wall in one end and valve tendon in the other end. The isolated papillary muscle was pinned down on a cork at the two ends using 30 gauge needles. A small drop of optimal cutting temperature (O.C.T.) compound was used to fill the space between the muscle tissue and the surface of the cork before flash freezing by quickly submerging in liquid nitrogen. The frozen papillary muscle was sectioned longitudinally at a thickness of 35 μm using a cryostat and collected on a glass slide. Four stacked razor blades were used to cut the muscle sections longitudinally into 140-150 μm wide strips. The muscle strips were washed in a relaxing buffer (BES 40 mM, EGTA 10 mM, MgCl2 6.86 mM, ATP 5.96 mM, DTT 1 mM, creatine phosphate 33 mM, creatine kinase 200 U/mL, K-propionate 3.28 mM, pH 7.0, plus protease inhibitor cocktail) and then gently transferred into myofibril relaxation buffer containing 50% glycerol in a 35 mm culture dish and stored at −20° C. for later use in force-pCa studies.
For contractility studies, the storage dish was placed on a thermal-controlled metal stage at 0° C. under a dissection scope. […] After a wash with relaxation buffer, the permeabilized muscle strip was placed in pCa 9.0 buffer made by mixing the relaxing buffer (pCa 10.0) with an activation buffer (BES 40 mM, EGTA 10 mM, MgCl2 6.64 mM, ATP 6.23 mM, DTT, 1 mM, CaCl2 10 mM, creatine phosphate 33 mM, creatine kinase 200 U/mL, K-propionate 2.09 mM, pH 7.0, plus protease inhibitor cocktail, pCa 4.0) and the sarcomere length was measured through a digital camera attached to the microscope and adjusted to resting sarcomere length of 2.7 μm for EDL muscle fibers or 2.0 μm and 2.3 μm for cardiac muscle fibers. […]

[6] = tested on: skinned rat ventricular papillary muscle; assay: Force-pCa contractility of skinned rat ventricular papillary muscle sections; type: biochemical; conditions: 20 μM peptide
Description: as §1
For contractility studies, the storage dish was placed on a thermal-controlled metal stage at 0° C. under a dissection scope. Cryosectioned cardiac muscle strips selected with cardiomyocytes clearly organized along the long axis and EDL muscle fibers were mounted between two aluminum T-clips and transferred to an 8-chamber thermo-controlled stage (802D, Aurora Scientific) on an inverted microscope in relaxation buffer at 6-8° C. Seen through a 20× lens, the muscle preparation was connected to a force transducer (403A, Aurora Scientific) and a length controller (322-C, Aurora Scientific). The buffer was then switched to a skinning solution (relaxation buffer containing 1% Triton X-100) for 20 min to further permeabilize the muscle strips. After a wash with relaxation buffer, the permeabilized muscle strip was placed in pCa 9.0 buffer made by mixing the relaxing buffer (pCa 10.0) with an activation buffer (BES 40 mM, EGTA 10 mM, MgCl2 6.64 mM, ATP 6.23 mM, DTT, 1 mM, CaCl2 10 mM, creatine phosphate 33 mM, creatine kinase 200 U/mL, K-propionate 2.09 mM, pH 7.0, plus protease inhibitor cocktail, pCa 4.0) and the sarcomere length was measured through a digital camera attached to the microscope and adjusted to resting sarcomere length of 2.7 μm for EDL muscle fibers or 2.0 μm and 2.3 μm for cardiac muscle fibers. Calcium activated force was examined at pCa 6.5, 6.3, 6.0, 5.8, 5.5, 5.0, and 4.5 at 15° C. using calcium-EGTA buffer sets made using a formula described in S. M. Roche et al., Journal of Visualized Experiments 100 (2015). HcTnI-C27 peptide was then added at 20 μM and the force-pCa measurements were repeated. The force-pCa curves were plotted and fitted using Hill exponential equation for data analysis, see S. M. Roche et al., Journal of Visualized Experiments 100 (2015).

mAb TnI-1 [7] = assay: ELISA titration of mAb TnI-1 against coated fusion proteins / cardiac TnI, non-denaturing; type: binding, mouse; conditions: non-denaturing conditions, protein coated on microtiter plate
Description: The ELISA procedure used in the present study for epitope structure and protein binding studies was performed as described in B. J. Biesiadecki et al., Journal of Biomedicine and Biotechnology, (2011) 1-8. Briefly, 96-well microtiter plates were coated with SUMO-HcTnI-C27 fusion protein, SUMO-HcTnI-C27-H fusion protein, purified bovine cardiac TnI, or R192H mutant mouse cardiac TnI (2 μg/mL in Buffer A containing 0.1 M KC1, 3 mM MgCl2, 10 mM PIPES, pH 7.0, 100 microliters/well) at 4° C. overnight. The plates were washed with Buffer T (0.05% Tween-20 in Buffer A) for 10 minutes and tapped dry. The wells were blocked using Buffer B (1% BSA in Buffer T) at room temperature for one hour. After washing again with Buffer T, serial dilutions of primary mAb against the coated protein were added in triplicates in Buffer D (dilution buffer, 0.1% BSA in Buffer T) and the plate was incubated at room temperature for two hours. After Buffer T washes, horseradish peroxidase (HRP)-conjugated anti-mouse immunoglobulin secondary antibody was added to incubate at room temperature for one hour. After final washes, H2O2-2,2′-azinobis-(3-ethylbenzthiazolinesulfonic acid) substrate solution was added for colorimetric development at room temperature and the plate was read using an automated microplate reader at 420 nm at 5 minute intervals for 30 minutes.
The ELISA experiments were done in triplicate wells. […]

[8] = sarcomere lengths 2.0 μm and 2.3 μm

ENREVGDWHKNIDALSGMEGRKKKFES (C-terminal portion of human cardiac troponin I with H substitution for R at position 9) [HcTnI-C27-H, R192H mutant of the C-terminal 27 amino acid peptide of human cardiac TnI, reference compound]
competition with intact bovine cardiac TnI for binding to immobilized tropomyosin [1]: diminished
competition with intact cardiac TnI for binding of mAb TnI-1, synthetic versus biologically made peptide (mAb TnI-1 [2]): drastically lost the binding affinity for mAb TnI-1
reactivity to mAb TnI-1 in Western blot (mAb TnI-1 [3]): remains non-reactive to mAb TnI-1

ENREVGDWRKNIDALSGMEGRKKKFES (C-terminal portion of human cardiac troponin I) [HcTnI-C27, the C-terminal 27 amino acid peptide of human cardiac TnI]
cooperativity (n) of force-pCa curve [4]: significantly decreased cooperativity
maximum force production [4]: not affected
myofilament Ca2+ sensitivity [4]: myofilament Ca^2+-desensitization effect predominantly in the activated state
competition with intact bovine cardiac TnI for binding to immobilized tropomyosin [1]: dose-dependent competition
cooperativity ([5]; sarcomere length 2.0 μm, activated state): significantly lowered cooperativity
Ca2+ sensitivity (force-pCa curves) [5, 8]: right-shifts of the force-pCa curves
maximum force production [5, 8]: not significantly affected
competition with intact cardiac TnI for binding of mAb TnI-1, synthetic versus biologically made peptide (mAb TnI-1 [2]): nearly identical effectiveness
reactivity to mAb TnI-1 in Western blot (mAb TnI-1 [3]): remains reactive to mAb TnI-1
pCa50 and cooperativity ([6]; sarcomere length 2.0 μm): small effect on lowering pCa50 and cooperativity
Ca2+-sensitization effect of increasing sarcomere length ([6]; sarcomere length 2.0 μm to 2.3 μm): diminished the Ca^2+-sensitization effect of increasing sarcomere length from 2.0 μm to 2.3 μm
cooperativity ([6]; sarcomere length 2.3 μm): trend of decreasing cooperativity
pCa50 ([6]; sarcomere length 2.3 μm): statistically significant right-shift of pCa50
maximum force production [6, 8]: not affected

Tx3-SUMO-HcTnI-C27-H: HcTnI-C27-H (R192H mutant) expressed as Tx3-SUMO fusion protein (ENREVGDWHKNIDALSGMEGRKKKFES; also: expressed as Tx3-SUMO fusion protein) [reference compound]
binding of mAb TnI-1 in ELISA titration (mAb TnI-1 [7]): clearly detectable but significantly decreased binding to mAb TnI-1
reactivity to mAb TnI-1 in Western blot (mAb TnI-1 [3]): lost binding to mAb TnI-1

Tx3-SUMO-HcTnI-C27: HcTnI-C27 expressed as fusion protein with Tx3 metal-binding tag and SUMO substrate domain (ENREVGDWRKNIDALSGMEGRKKKFES; also: expressed as Tx3-SUMO fusion protein)
binding of mAb TnI-1 in ELISA titration (mAb TnI-1 [7]): saturable binding of mAb TnI-1
reactivity to mAb TnI-1 in Western blot (mAb TnI-1 [3]): reactive to mAbTnI-1
